Source: the NIST ThermoML archive (doi:10.1021/je900672g)
Numbers after ± are expanded uncertainties.

Test: isobaric coefficient of expansion
Conditions: Liquid, DSC

CCC[N+](=O)[O-] [1-nitropropane]
isobaric coefficient of expansion
Conditions | 278.15 K | 288.15 K | 298.15 K | 308.15 K | 318.15 K | 328.15 K | 338.15 K | 348.15 K
5000 kPa | 0.00105 ± 2.6e-05 1/K | 0.00106 ± 2.6e-05 1/K | 0.00108 ± 2.6e-05 1/K | 0.00109 ± 2.7e-05 1/K | 0.00113 ± 2.8e-05 1/K | 0.00115 ± 2.8e-05 1/K | 0.00119 ± 2.9e-05 1/K | 0.00122 ± 3e-05 1/K
10000 kPa | 0.00103 ± 2.5e-05 1/K | 0.00104 ± 2.5e-05 1/K | 0.00105 ± 2.6e-05 1/K | 0.00106 ± 2.6e-05 1/K | 0.00109 ± 2.7e-05 1/K | 0.00111 ± 2.7e-05 1/K | 0.00113 ± 2.8e-05 1/K | 0.00117 ± 2.9e-05 1/K
15000 kPa | 0.00101 ± 2.5e-05 1/K | 0.00101 ± 2.5e-05 1/K | 0.00103 ± 2.5e-05 1/K | 0.00104 ± 2.5e-05 1/K | 0.00106 ± 2.6e-05 1/K | 0.00107 ± 2.6e-05 1/K | 0.00109 ± 2.7e-05 1/K | 0.00111 ± 2.7e-05 1/K
20000 kPa | 0.000982 ± 2.4e-05 1/K | 0.000991 ± 2.4e-05 1/K | 0.001 ± 2.5e-05 1/K | 0.00101 ± 2.5e-05 1/K | 0.00103 ± 2.5e-05 1/K | 0.00104 ± 2.5e-05 1/K | 0.00105 ± 2.6e-05 1/K | 0.00107 ± 2.6e-05 1/K
25000 kPa | 0.000966 ± 2.4e-05 1/K | 0.000972 ± 2.4e-05 1/K | 0.000977 ± 2.4e-05 1/K | 0.000986 ± 2.4e-05 1/K | 0.000995 ± 2.4e-05 1/K | 0.00101 ± 2.5e-05 1/K | 0.00102 ± 2.5e-05 1/K | 0.00103 ± 2.5e-05 1/K
30000 kPa | 0.000943 ± 2.3e-05 1/K | 0.000954 ± 2.3e-05 1/K | 0.000958 ± 2.3e-05 1/K | 0.000963 ± 2.4e-05 1/K | 0.000976 ± 2.4e-05 1/K | 0.000981 ± 2.4e-05 1/K | 0.000988 ± 2.4e-05 1/K | 0.000996 ± 2.4e-05 1/K
35000 kPa | 0.000933 ± 2.3e-05 1/K | 0.000932 ± 2.3e-05 1/K | 0.000941 ± 2.3e-05 1/K | 0.000945 ± 2.3e-05 1/K | 0.000952 ± 2.3e-05 1/K | 0.000957 ± 2.3e-05 1/K | 0.000964 ± 2.4e-05 1/K | 0.000967 ± 2.4e-05 1/K
40000 kPa | 0.000913 ± 2.2e-05 1/K | 0.000916 ± 2.2e-05 1/K | 0.00092 ± 2.3e-05 1/K | 0.000921 ± 2.3e-05 1/K | 0.000927 ± 2.3e-05 1/K | 0.00093 ± 2.3e-05 1/K | 0.00093 ± 2.3e-05 1/K | 0.000932 ± 2.3e-05 1/K
45000 kPa | 0.000902 ± 2.2e-05 1/K | 0.000902 ± 2.2e-05 1/K | 0.000904 ± 2.2e-05 1/K | 0.000906 ± 2.2e-05 1/K | 0.00091 ± 2.2e-05 1/K | 0.000912 ± 2.2e-05 1/K | 0.000914 ± 2.2e-05 1/K | 0.000915 ± 2.2e-05 1/K
50000 kPa | 0.000885 ± 2.2e-05 1/K | 0.000887 ± 2.2e-05 1/K | 0.000889 ± 2.2e-05 1/K | 0.000891 ± 2.2e-05 1/K | 0.000895 ± 2.2e-05 1/K | 0.000894 ± 2.2e-05 1/K | 0.000894 ± 2.2e-05 1/K | 0.000894 ± 2.2e-05 1/K
55000 kPa | 0.000871 ± 2.1e-05 1/K | 0.000874 ± 2.1e-05 1/K | 0.000875 ± 2.1e-05 1/K | 0.000873 ± 2.1e-05 1/K | 0.00088 ± 2.2e-05 1/K | 0.00088 ± 2.2e-05 1/K | 0.000883 ± 2.2e-05 1/K | 0.000879 ± 2.2e-05 1/K

O=[N+]([O-])c1ccccc1 [nitrobenzene]
isobaric coefficient of expansion
Conditions | 288.15 K | 298.15 K | 308.15 K | 318.15 K | 328.15 K | 338.15 K | 348.15 K
5000 kPa | 0.000818 ± 2e-05 1/K | 0.000823 ± 2e-05 1/K | 0.000827 ± 2e-05 1/K | 0.000832 ± 2e-05 1/K | 0.000837 ± 2.1e-05 1/K | 0.000843 ± 2.1e-05 1/K | 0.000852 ± 2.1e-05 1/K
10000 kPa | 0.000813 ± 2e-05 1/K | 0.000808 ± 2e-05 1/K | 0.000812 ± 2e-05 1/K | 0.00082 ± 2e-05 1/K | 0.000821 ± 2e-05 1/K | 0.000828 ± 2e-05 1/K | 0.000827 ± 2e-05 1/K
15000 kPa | 0.000797 ± 2e-05 1/K | 0.0008 ± 2e-05 1/K | 0.000799 ± 2e-05 1/K | 0.000802 ± 2e-05 1/K | 0.000802 ± 2e-05 1/K | 0.000806 ± 2e-05 1/K | 0.000811 ± 2e-05 1/K
20000 kPa | 0.000785 ± 1.9e-05 1/K | 0.000785 ± 1.9e-05 1/K | 0.000787 ± 1.9e-05 1/K | 0.000792 ± 1.9e-05 1/K | 0.000787 ± 1.9e-05 1/K | 0.00079 ± 1.9e-05 1/K | 0.000794 ± 1.9e-05 1/K
25000 kPa | 0.000775 ± 1.9e-05 1/K | 0.000772 ± 1.9e-05 1/K | 0.000773 ± 1.9e-05 1/K | 0.000774 ± 1.9e-05 1/K | 0.000774 ± 1.9e-05 1/K | 0.000775 ± 1.9e-05 1/K | 0.00078 ± 1.9e-05 1/K
30000 kPa | 0.000762 ± 1.9e-05 1/K | 0.000762 ± 1.9e-05 1/K | 0.00076 ± 1.9e-05 1/K | 0.000762 ± 1.9e-05 1/K | 0.000761 ± 1.9e-05 1/K | 0.000762 ± 1.9e-05 1/K | 0.000764 ± 1.9e-05 1/K
35000 kPa | 0.000749 ± 1.8e-05 1/K | 0.000752 ± 1.8e-05 1/K | 0.00075 ± 1.8e-05 1/K | 0.000749 ± 1.8e-05 1/K | 0.00075 ± 1.8e-05 1/K | 0.000751 ± 1.8e-05 1/K | 0.00075 ± 1.8e-05 1/K
40000 kPa | 0.00074 ± 1.8e-05 1/K | 0.000742 ± 1.8e-05 1/K | 0.000737 ± 1.8e-05 1/K | 0.000737 ± 1.8e-05 1/K | 0.000739 ± 1.8e-05 1/K | 0.000736 ± 1.8e-05 1/K | 0.000734 ± 1.8e-05 1/K
45000 kPa | 0.000729 ± 1.8e-05 1/K | 0.000731 ± 1.8e-05 1/K | 0.000728 ± 1.8e-05 1/K | 0.000729 ± 1.8e-05 1/K | 0.000726 ± 1.8e-05 1/K | 0.000725 ± 1.8e-05 1/K | 0.000721 ± 1.8e-05 1/K
50000 kPa | 0.000725 ± 1.8e-05 1/K | 0.000722 ± 1.8e-05 1/K | 0.000719 ± 1.8e-05 1/K | 0.000718 ± 1.8e-05 1/K | 0.000716 ± 1.8e-05 1/K | 0.000715 ± 1.8e-05 1/K | 0.000711 ± 1.7e-05 1/K
55000 kPa | 0.000717 ± 1.8e-05 1/K | 0.000714 ± 1.7e-05 1/K | 0.00071 ± 1.7e-05 1/K | 0.00071 ± 1.7e-05 1/K | 0.000707 ± 1.7e-05 1/K | 0.000708 ± 1.7e-05 1/K | 0.000701 ± 1.7e-05 1/K
